Key:
PBMC cells = experiment: In vitro transfection of PBMC cells with EGFP mRNA LNP preparation (flow cytometry); type: cell-based; parameters: Cell Viability: concentration or dose not given beside the values; settings: for Cell Viability / Positive Rate (EGFP): LNP preparation added with ApoE4; for Fluorescence Intensity: with ApoE4, EGFP mRNA expression level normalized based on the sample with the highest fluorescence intensity
Description: The description is based on peripheral blood mononuclear cells PBMC (Shanghai Oribiotech Co., Ltd.), human peripheral blood leukemia T cell Jurkat (ATCC), tumor infiltrating lymphocyte TIL (isolated from resected tumor tissue of a liver cancer patient, the preparation method refers to CN114763530A), mouse bone marrow-derived dendritic cells DC2.4 (Cell Bank of the Chinese Academy of Sciences), and Chinese hamster ovary cells CHO (ATCC) were used as verified cell lines for liposome transfection. PBMC, Jurkat, and TIL cells grew in suspension, while DC2.4 and CHO cells grew by adherent culture. All the operation steps of cell culture must strictly abide by the prescribed procedures, and sterile reagents is used to perform aseptic operations under a sterile workbench. The main steps are as follows: • 1) Cell recovery: the preserved cell cryopreservation solution was taken out of the −80° C. refrigerator, and was immediately put in a 37° C. water bath for rapid and continuous shaking, and was completely melted within one minute. Fresh medium was added to the 15 mL centrifuge tube in advance, and the cell solution was added to the centrifuge tube in a biological safety cabinet. A centrifuge tube of the same quality was taken and placed symmetrically in a centrifuge, centrifuged at a low speed at 1200 rpm for 5 min. After centrifugation, the supernatant was removed, and an appropriate amount of medium was slowly added along the tube wall. After the cells were evenly dispersed by blowing gently, the cell suspension was pipette and added to the culture bottle prepared in advance. The state and distribution of the cells in the early stage of recovery were observed under a microscope. The culture bottle was placed in a 5% CO2 incubator and incubated at 37° C., and the recovery time was recorded. • 2) Cell subculture: Under the microscope, if the cell density in the field of view reaches 80%-90%, the cells can be subcultured. Adherent cells need to be digested with trypsin. In order to avoid the residual serum in the culture medium to reduce the activity of trypsin, DPBS solution was added to wash once after removing the original culture medium. After remove the DPBS solution, trypsin was added to degrade the protein at the junction between cells. This separates the cells for further culture. The cells were gently shaked evenly and put into the incubator for digestion for 2 min. Immediately after the digestion was completed, an appropriate amount of medium was added to the original petri dish to terminate the digestion. Finally, the cells were carefully blowed off using a pipette and blowed until they are evenly dispersed, and then inoculated and subcultured at a certain ratio according to the experimental requirements.
• 1) Coating antibodies: 6-well plates were pre-coated, CD3 and CD28 antibodies were taken out from the −20° C. refrigerator, and melted for later use. The above two antibodies were added into the DPBS solution at a concentration of 5 µg/mL, mixed well, added into a six-well plate at 1 mL/well, put in a 37° C. incubator, and waited 4 hours for later use. • 2) PBMC recovery: the frozen PBMC cells were taken out from the −80° C. refrigerator, put in a 37° C. water bath to quickly thaw the cells, added to the preheated medium after thawing, centrifuged at 1200 rpm for 5 min, the supernatant was discarded, and an appropriate amount of AIMN-V medium with 500 U/ml IL-2 was added to resuspend PBMC. • 3) the DPBS coated with the antibody was removed with a pipette, the cell suspension was transferred to a six-well plate pre-coated with the antibody at 4 mL per well, placed in a 5% CO2 incubator at 37° C. for 3-5 days for activation and culture. • 4) According to the experimental arrangement, PBMC cells were plated on a 24-well plate 30 minutes in advance on the day of cell transfection. […]

[1] = Entrapment efficiency of LNP preparation encapsulating EGFP mRNA; type: physicochemical; settings: LNP ionizable lipid/DOPE/cholesterol/DSPE-PEG2000 35/16/46.5/2.5 mol% encapsulating EGFP mRNA
Outline: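 LNPs of ionizable lipid/DOPE/cholesterol/DSPE-PEG2000 (35/16/46.5/2.5 mol %) made by microfluidic mixing of ethanol lipids with EGFP mRNA in 20 mM citrate pH 6.1 (1:3 by volume), lipid:mRNA about 10:1 by weight. Buffer exchanged to DPBS by ultrafiltration, then 0.2 μm filtered; mRNA 0.002–0.5 mg/mL.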

[2] = Size and polydispersity index PDI of lipid nanoparticles (Malvern Zetasizer Nano ZS); type: physicochemical; settings: LNP ionizable lipid/DOPE/cholesterol/DSPE-PEG2000 35/16/46.5/2.5 mol% encapsulating EGFP mRNA; for Particle Size: in nm (unit assumed)
Outline: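 LNPs of ionizable lipid/DOPE/cholesterol/DSPE-PEG2000 (35/16/46.5/2.5 mol %) encapsulating EGFP mRNA, made by microfluidic mixing (ethanol lipid:citrate pH 6.1 aqueous 1:3 by volume; lipid:mRNA ~10:1 w/w). Buffer-exchanged into DPBS, 0.2 μm filtered. Size and PDI by dynamic light scattering at […] backscatter angle.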

Row | Entrapment Efficiency [1] | PDI [2] | Particle Size [2] | Structure (SMILES) | Cell Viability (PBMC cells; PBMCs) | Positive Rate (EGFP) (PBMC cells; PBMCs) | Fluorescence Intensity (PBMC cells; PBMCs) | transfection efficiency (FIG. 2) (PBMC cells; PBMC, in the absence of AopE4) | transfection efficiency (FIG. 3) (PBMC cells; PBMC, with ApoE4) | change of transfection efficiency with ApoE4 (FIG. 3) (PBMC cells; PBMC, with ApoE4 versus without) | cell viability by flow cytometry (FIG. 1) (PBMC cells; PBMCs, after in vitro transfection, ApoE4 did not affect viability)
1 | 90.56% | 0.144 | 96.9 | CCCCCCCCCCCCCCCCC(O)CN(CCN1CCN(CCN(CCN(CC(O)CCCCCCCCCCCCCCCC)CC(O)CCCCCCCCCCCCCCCC)CCN(CC(O)CCCCCCCCCCCCCCCC)CC(O)CCCCCCCCCCCCCCCC)CC1)CC(O)CCCCCCCCCCCCCCCC (stereo not shown) [A-C18] | 85.00% | 81.90% | 0.87 |  |  |  | 
2 | 89.93% | 0.147 | 102.9 | CCCCCCCCCCC(O)CN(CCOCCN(CCOCCN(CC(O)CCCCCCCCCC)CC(O)CCCCCCCCCC)CCN1CCN(CCOCCN(CC(O)CCCCCCCCCC)CC(O)CCCCCCCCCC)CC1)CC(O)CCCCCCCCCC (stereo not shown) [B-C12, 19-(2-(4-(2-(2-(di(2-hydroxydodecyl)amino)ethoxy)ethyl)piperazin-1-yl)ethyl)-13, 15-bis(2-hydroxydodecyl)-16,22-dioxa-13,19,25-triazaheptakadecane-11,27-diol] | 85.00% | 83.00% | 0.81 |  |  |  | 
3 | 95.21% | 0.133 | 90.5 | CCCCCCCCCCCCC(O)CN(CCOCCN(CCOCCN(CC(O)CCCCCCCCCCCC)CC(O)CCCCCCCCCCCC)CCN1CCN(CCOCCN(CC(O)CCCCCCCCCCCC)CC(O)CCCCCCCCCCCC)CC1)CC(O)CCCCCCCCCCCC (stereo not shown) [B-C14] | 90.00% | 85.50% | 1 | low transfection efficiency | over 75% | increased | high viability
4 | 95.24% | 0.070 | 92.5 | CCCCCCCCCCC(O)CN(CCOCCOCCN(CCOCCOCCN(CC(O)CCCCCCCCCC)CC(O)CCCCCCCCCC)CCN1CCN(CCOCCOCCN(CC(O)CCCCCCCCCC)CC(O)CCCCCCCCCC)CC1)CC(O)CCCCCCCCCC (stereo not shown) [C-C12] | 89.30% | 56.50% | 0.41 |  |  |  | 

More lines, now with the values behind:

Row | Structure (SMILES) | Entrapment Efficiency [1] | PDI [2] | Particle Size [2] | Cell Viability (PBMC cells; PBMCs) | Positive Rate (EGFP) (PBMC cells; PBMCs) | Fluorescence Intensity (PBMC cells; PBMCs) | transfection efficiency (FIG. 2) (PBMC cells; PBMC, in the absence of AopE4) | transfection efficiency (FIG. 3) (PBMC cells; PBMC, with ApoE4) | change of transfection efficiency with ApoE4 (FIG. 3) (PBMC cells; PBMC, with ApoE4 versus without) | cell viability by flow cytometry (FIG. 1) (PBMC cells; PBMCs, after in vitro transfection, ApoE4 did not affect viability)
5 | CCCCCCCCCCC(O)CN(CCN1CCN(CCN(CCN(CC(O)CCCCCCCCCC)CC(O)CCCCCCCCCC)CCN(CC(O)CCCCCCCCCC)CC(O)CCCCCCCCCC)CC1)CC(O)CCCCCCCCCC (stereo not shown) [A-C12] | 89.80% | 0.173 | 91.6 | 89.70% | 73.30% | 0.72 |  |  |  | 
6 | CCCCCCCCCCCCC(O)CN(CCN1CCN(CCN(CCN(CC(O)CCCCCCCCCCCC)CC(O)CCCCCCCCCCCC)CCN(CC(O)CCCCCCCCCCCC)CC(O)CCCCCCCCCCCC)CC1)CC(O)CCCCCCCCCCCC (stereo not shown) [A-C14] | 80.31% | 0.107 | 97.1 | 91.20% | 72.30% | 0.76 |  |  |  | 
7 | CCCCCCCCCCCCCCC(O)CN(CCN1CCN(CCN(CCN(CC(O)CCCCCCCCCCCCCC)CC(O)CCCCCCCCCCCCCC)CCN(CC(O)CCCCCCCCCCCCCC)CC(O)CCCCCCCCCCCCCC)CC1)CC(O)CCCCCCCCCCCCCC (stereo not shown) [A-C16] | 90.30% | 0.183 | 90.8 | 90.00% | 76.30% | 0.81 |  |  |  | 
